Where two headings read alike, the source gives them in different places.
What was measured:
[1] = system: rat alveolar macrophages; details: in vivo
Excerpt: The basal and stimulated functions of rat alveolar macrophages obtained by lavage were studied with and without administration of liposomal amikacin formulations and compared to various controls.

[2] = Clinical chemical assay (TDX) of aminoglycoside content in tissue of treated infected rats; type: in vivo; details: Sprague-Dawley, other: intratracheal (IT), 10 mg/rat
Protocol: […] The clinical chemical assay was performed using a TDX instrument while the bioassay was performed by measuring inhibition zones on agar plates embedded with Bacillus subtilis.

[3] = Bioavailability of amikacin from inhaled liposomal amikacin formulations: lung homogenate levels; details: CD IGS, rat, in vivo, 5 mg/kg
[4] = system: P. aeruginosa PA01; assay: In vitro release and activity in Slide-A-Lyzer cartridges, CFU after 24 hrs; type: cell-based; details: amikacin 50 μg/mL, preliminary experiments
Protocol: An in vitro test of release and activity was performed under conditions similar to the pharmacokinetics in the lung, where it has been previously shown that free antibiotic is cleared on the time scale of a few hours. […] Free drug dialyzes out of the cartridges on the time scale of hours under these conditions. After 24 hrs., the samples were withdrawn from the cartridges and plated to measure CFU.

[5] = design: species or system rats; details: rat, in vivo
Protocol: The binding of aminoglycosides to sputum of CF patients is a concern, particularly if this binding reduces the bioactivity of the antiinfective (Hunt et al., 1995). To determine whether liposomal formulations of amikacin can retain biological activity over a prolonged period of time, normal rats were administered liposomal formulations of amikacin by intratracheal instillation. This was followed by its removal at 2 or 24 hours via a bronchial alveolar lavage (BAL) to determine biological activity. […] Amikacin concentration was determined employing a TDX instrument and biological activity determined using a Mueller Hinton broth dilution assay (Pseudomonas aeruginosa).

[6] = mouse, in vivo, po, 15 mg/kg
[7] = lung homogenate, homogenized rat lungs following the 14 day experiment, read-out: Clinical Assay

| Structure (SMILES) | inflammatory response in the lungs (nitrates and TNF-α in BALF) [1] | concentration at 14 day [2, 7] | concentration at 24 h [3] | reduction of CFUs [4] | concentration at 14 day ([2]; rat, kidney, kidneys, following the 14 day experiment, read-out: detectable levels of aminoglycoside in the kidneys) | drug in a BAL [5] | detectability of drug in the lung over time [6] |
| --- | --- | --- | --- | --- | --- | --- | --- |
| NCC[C@H](O)C(=O)N[C@@H]1C[C@H](N)[C@@H](O[C@H]2O[C@H](CN)[C@@H](O)[C@H](O)[C@H]2O)[C@H](O)[C@H]1O[C@H]1O[C@H](CO)[C@@H](O)[C@H](N)[C@H]1O [Free amikacin, amikacin] | did not produce a significant acute or delayed inflammatory response | 2000 ng/mL | ~500000 ng/g | only slightly reduced the CFU | – | – | – |
| NC[C@H]1O[C@H](O[C@H]2[C@H](O)[C@@H](O[C@H]3O[C@H](CO)[C@@H](O)[C@H](N)[C@H]3O)[C@H](N)C[C@@H]2N)[C@H](N)C[C@@H]1O [Free tobramycin, tobramycin] | – | 1400 ng/mL | – | – | 100 ng/mL | undetectable | – |
| O=C(O)c1cn(C2CC2)c2cc(N3CCNCC3)c(F)cc2c1=O [free ciprofloxacin, ciprofloxacin] | – | – | – | – | – | – | undetectable in less than two hours |
